Test results: patent US20100087475A1, “PHARMACEUTICAL COMPOUNDS” (Biovali Laboratories International (Barbados) S.R.L., priority 2008, published 2010)

Legend:
Dopamine D4.4 Receptor = target: T1, Dopamine D4.4 Receptor (Homo sapiens, UniProt P21917); experiment: Radioligand binding, [3H] Spiperone; conditions: compound at 10 μM
T1 construct: expressed in transfected cells; host or cells: CHO-K1 cells
T1 sequence (P21917 1-419): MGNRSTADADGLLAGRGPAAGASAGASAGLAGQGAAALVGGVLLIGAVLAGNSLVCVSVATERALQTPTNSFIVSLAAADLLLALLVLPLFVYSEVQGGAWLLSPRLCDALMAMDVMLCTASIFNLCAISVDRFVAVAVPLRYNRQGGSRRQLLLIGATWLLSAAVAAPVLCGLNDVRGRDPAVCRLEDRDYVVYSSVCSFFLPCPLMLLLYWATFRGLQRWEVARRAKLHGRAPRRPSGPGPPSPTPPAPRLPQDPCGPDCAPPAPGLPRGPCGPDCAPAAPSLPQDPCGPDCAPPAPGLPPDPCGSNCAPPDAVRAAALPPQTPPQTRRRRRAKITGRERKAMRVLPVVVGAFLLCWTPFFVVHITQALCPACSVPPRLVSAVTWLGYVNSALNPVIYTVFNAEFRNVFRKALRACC
Method: Compounds of the invention were subjected to specific binding assays to test their ability to bind to the receptors and transporter proteins described below.
(§1) (i) Dopamine D4.4 Receptor:
(§2) • Reference: Van Tol et al., Nature, 350:610-614 (1991) • Source: Human recombinant CHO-K1 cells • Ligand: 1.2 nM [^3H]

dopamine receptors = experiment: Receptor binding studies, overall statement on dopamine receptors; parameters: species or system Human; conditions: conclusion from % inhibition at 10 μM
Method: (d) Dopamine D1 Receptor:
• Reference: Dearry et al., Nature, 347:72-76, (1990) • Source: Human recombinant CHO cells • Ligand: 1.4 nM [3H] SCH-23390 • Vehicle: 1% DMSO • Incubation time/Temp: 2 hours @ 37° C. • Incubation buffer: 50 mM Tris-HCl, pH 7.4, 150 mM NaCl, 1.4 mM ascorbic acid, 0.001% BSA • Non Specific ligand: 10 μM (+)-butaclamol • Kd: 1.4 nM • Bmax: 0.63 pmole/mg protein • Specific binding: 90% • Quantitation method: Radioligand binding • Significance criteria: ≧50% of maximum stimulation or inhibition
(e) Dopamine D2L Receptor:
• Reference: Grandy et al., Proc. Natl. Acad. Sci. USA, 86:9762-9766 (1989) • Source: Human recombinant CHO cells • Ligand: 0.16 nM [^3H]
(f) Dopamine D2S Receptor:
(g) Dopamine D3 Receptor:
• Reference: Sokoloff et al., Nature, 347:146-151, (1990) • Source: Human recombinant CHO cells • Ligand: 0.7 nM [3H]
(h) Dopamine D4.2 Receptor:
• Reference: Van Tol et al., Nature, 350:610-614 (1991) • Source: Human recombinant CHO-K1 cells • Ligand: 0.5 nM [^3H]
as §1, §2
(j) Dopamine D4.7 Receptor:
• Reference: Van Tol et al., Nature, 350:610-614 (1991) • Source: Human recombinant CHO-K1 cells • Ligand: 1.5 nM [^3H]

SMILES | % inhibition, (i) D4.4 Receptor (Dopamine D4.4 Receptor) [%] | inhibition of dopamine receptors (result in words) (dopamine receptors)
COc1cc2c(cc1O)[C@@H]1C[C@@H](O)[C@H](CC(C)C)CN1CC2 (single isomer, unassigned) [(+)-10-desmethyl-γ-dihydrotetrabenazine] | 33 | 
COc1cc2c(cc1O)[C@@H]1C[C@@H](O)[C@H](CC(C)C)CN1CC2 (single isomer, unassigned) [(−)-10-desmethyl-γ-dihydrotetrabenazine] | 81 | potent inhibitor of dopamine receptors
